Test results reported in patent US20250026769A1, “PAPD5 INHIBITORS AND METHODS OF USE THEREOF” (The Children's Medical Center Corporation, priority 2021, published 2025).
Like-named read-outs stand apart in the source and are kept apart here.

Assays:
[1] = test system: hepatitis B surface antigen (HBSAg) from HepG2.2.15 cells, a hepatitis B virus-expressing cell line; assay: HBsAg ELISA in supernatant of HepG2.2.15 cells; type: cell-based; settings: HepG2.2.15, 96 h
Method: HepG2.2.15 cells, a hepatitis B virus-expressing cell line (Sells, M. A. et al., PNAS, 1987), were plated at 50,000 cells/well in DMEM/F12 media (Gibco) with 10% fetal bovine serum (Omega Scientific) in a 24-well or 96-well plate (Corning), in 2-3 replicates for each test compound/concentration plus controls, and incubated in a humidified 5% CO2 chamber at 37° C. The next day, media was aspirated, cells were washed once with phosphate buffered saline, pH7.4 (Gibco), and 1 mL DMEM/12 media was replaced. Test compounds were added in 3-fold dilutions from up to 100 μM down to 333 pM, with vehicle (dimethylsulfoxide (Sigma)) as a control. After four days of culture in a humidified 5% CO2 chamber at 37° C., plates were spun down in a centrifuge at 300 g for 10 minutes at room temperature. Supernatant from each well was collected and either frozen at −20° C. or used directly for quantitation of hepatitis B surface antigen (HBSAg) in an enzyme-linked immunosorbent assay (ELISA). The supernatant was tested using the HBSAg ELISA kit (Abnova Cat. No KA0286) per the manufacturer's instructions. Results of replicates were averaged and nonlinear curve fitting was used to determine the half maximal inhibitory concentration (IC50) for each test compound.

rPAPD5 = molecular target: T1, rPAPD5 (Homo sapiens, UniProt Q8NDF8); assay: differential scanning fluorimetry (DSF) binding and stabilization of rPAPD5; settings: for ΔTm at 1 µM: read-out: ΔTm at 1 μM; for ΔTm at 100 µM: 100 μM test compound, read-out: ΔTm at 100 μM
T1 construct: made in house
Outline: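 Differential scanning fluorimetry was used to measure how test compounds bind and thermally stabilize rPAPD5. The reaction contained SYPRO orange dye diluted 1:5000 in […] of buffer with […], 25 mM Tris-HCl, 5 mM MgCl2 and 50 mM KCl. ΔTm was calculated relative to a DMSO control.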

[2] = test system: telomere length in DC patient iPSCs; assay: telomere length / telomere elongation in DC patient iPSCs; type: cell-based, human; settings: for minimal effective concentration: Homo sapiens, iPSC, read-out: iPSC-based Telomere length
Method: Compound 266A had activity ˜2-logs higher in the in vitro RNA oligoadenylation assay compared to the parental compound cmpd. 1, approximating the activity of RG7834 (FIG. 7). […] 1. Compounds 295A and 296A had activity 2-3 logs higher in DC patient iPSCs, showing TERC maturation at 1 nM, similar to RG7834 (FIG. 6). […] Referring to Table 1D, “+” refers to activity at 1 μM, “++” refers to activity above 1 nM and below 1 μM, and “+++” refers to activity at <1 nM, “ND” refers to not determined.

[3] = test system: TERC 3′ end processing in DC patient iPSCs; assay: TERC 3′ end processing by RACE in DC patient / PARN-mutant iPSCs; type: cell-based, human; settings: for minimal effective concentration: Homo sapiens, iPSC, read-out: iPSC-based RACE activity
Outline: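 Activity binned by concentration giving effect in DC patient iPSCs: "+" at 1 μM, "++" above 1 nM and below 1 μM, "+++" below 1 nM; ND, not determined.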

[4] = test system: TERC 3′ end processing in primary CD34+ human hematopoietic stem and progenitor cells (HSPCs); assay: TERC 3′ end processing (RACE) in CRISPR/Cas9-engineered PARN-deficient primary CD34+ HSPCs; type: cell-based; settings: for TERC 3′ end processing by RACE at 100 nM: day 5 (FIG. 40B); for TERC 3′ end processing by RACE at 1 μM: day 5 (FIG. 40A)
From the text: Example 167—Restoration of TERC 3′ end processing in primary CD34+ human hematopoietic stem and progenitor cells (HSPCs). To determine the efficacy of exemplified compounds in a disease-relevant stem cell population, we employed a highly-efficient CRISPR-Cas9 ribonucleoprotein transduction strategy to disrupt the PARN gene in primary human CD34+ hematopoietic stem and progenitor cells (HSPCs), or the control locus AAVS1. FIGS. 40A and 40B show extended TERC forms in CRISPR-Cas9 engineered HSPCs deficient in PARN.

[5] = test system: engraftment of CD45+, CD19+, CD34+ human blood cells; assay: engraftment of human blood cells in xenotransplanted mice by flow cytometry; type: in vivo, immunodeficient NBSGW mice with human HSPCs; settings: 32 mg/kg/dose twice daily for 11 doses
From the text: (§1) Example 168—Restoration of TERC 3′ end processing in vivo in human blood cells after xenotransplantation into immunodeficient mice. To determine the efficacy of orally administered exemplified compounds in primary human HSPCs and blood cells in restoring TERC processing in vivo, highly-efficient CRISPR-Cas9 ribonucleoprotein transduction was employed to disrupt the PARN gene in primary human CD34+ HSPCs or the control locus AAVS1. These genome-edited human HSPCs were xenotransplanted into immunodeficient NOD,B6.SCID Il2rg−/− KitW4l/W41 (NBSGW) mice, which engraft human HSPCs without exposure to radiation or chemotherapy. Six to ten weeks after xenotransplantation, exemplified compounds were administered for 4 to 7 days alongside controls. Thereafter, human hematopoietic cells were recovered from mouse bone marrow, and engraftment was analyzed by flow cytometry. Engrafted human hematopoietic cells were sorted for lineage markers, and CD19+ cells were used for analysis of restoration of TERC 3′ end processing by RNA-ligation mediated 3′ RACE.

[6] = test system: TERC 3′ ends in human CD19+ cells recovered from mice xenotransplanted with HSPCs; assay: TERC 3′ end processing in vivo in human CD19+ cells after xenotransplantation into NBSGW mice; design: species or system immunodeficient NBSGW mice with human HSPCs; settings: 32 mg/kg/dose twice daily for 11 doses (FIG. 41D)
From the text: as §1

[7] = 10 μM test compound (Table 2a), read-out: ΔTm at 10 μM
[8] = patient iPSCs, concentration class at which activity is seen
[9] = 10 μM test compound, shift vs DMSO control, read-out: ΔTm (Table 2, starred: the compound was tested at 10 μM)

T1 sequence (Q8NDF8 68-698 isoform Q8NDF8-5 limits assumed): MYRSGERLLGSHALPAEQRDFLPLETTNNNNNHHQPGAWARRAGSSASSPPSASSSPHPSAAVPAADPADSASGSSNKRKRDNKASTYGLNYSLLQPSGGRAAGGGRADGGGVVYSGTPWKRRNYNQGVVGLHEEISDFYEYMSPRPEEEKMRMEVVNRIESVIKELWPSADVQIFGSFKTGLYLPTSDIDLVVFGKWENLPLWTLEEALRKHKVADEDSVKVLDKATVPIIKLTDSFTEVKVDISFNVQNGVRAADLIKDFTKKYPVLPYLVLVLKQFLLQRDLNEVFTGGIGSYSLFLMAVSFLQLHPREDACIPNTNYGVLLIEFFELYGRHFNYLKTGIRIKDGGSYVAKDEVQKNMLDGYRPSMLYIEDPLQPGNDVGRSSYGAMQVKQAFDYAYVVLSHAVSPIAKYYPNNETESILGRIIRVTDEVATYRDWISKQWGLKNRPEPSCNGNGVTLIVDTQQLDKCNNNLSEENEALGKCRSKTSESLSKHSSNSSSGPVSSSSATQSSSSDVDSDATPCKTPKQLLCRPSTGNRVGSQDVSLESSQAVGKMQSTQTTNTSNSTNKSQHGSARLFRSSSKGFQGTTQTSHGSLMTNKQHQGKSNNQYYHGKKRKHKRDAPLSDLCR

Row | Compound | IC50 [1] [nM] | ΔTm at 1 µM (rPAPD5; 1 μM test compound (Table 2a)) [°C] | ΔTm at 10 µM (rPAPD5; [7]) [°C] | ΔTm at 100 µM (rPAPD5; shift vs DMSO control) [°C] | minimal effective concentration [2, 8] [µM] | minimal effective concentration [3, 8] [µM] | TERC 3′ end processing by RACE at 100 nM [4] | TERC 3′ end processing by RACE at 1 μM [4] | engraftment of CD45+, CD19+, CD34+ human blood cells [5] | TERC 3′ ends in human CD19+ cells (RACE) [6] | ΔTm at 10 µM (rPAPD5; read-out: ΔTm (Table 2, starred: the compound was tested at 10 μM)) [°C] | ΔTm at 1 µM (rPAPD5) [°C] | ΔTm at 10 µM (rPAPD5; read-out: ΔTm at 10 μM) [°C] | minimal effective concentration [2] [µM] | minimal effective concentration [3] [µM] | ΔTm at 10 µM (rPAPD5; [9]) [°C] | concentration at which telomere elongation was observed ([2]; DC patient iPSCs, after 3-4 weeks of cell culture) [nM] | activity in DC patient iPSCs (TERC maturation) relative to cmpd. 1 ([3]; DC patient iPSCs, higher / more potent than cmpd. 1)
1 | O=C(O)c1cc(Cl)ccc1Nc1c(CN2CCOCC2)cnc2ccc(Cl)cc12 [Compound 371A, 5-chloro-2-[[6-chloro-3-(morpholinomethyl)-4-quinolyl]amino]benzoic acid] | 145 | > 5 | > 5 | > 5 | < 0.001 | 0.001 to 1 | maturation of TERC 3′ end processing | maturation of TERC 3′ end processing | – | – | – | – | – | – | – | – | – | –
2 | O=C(O)c1cc(Cl)ccc1Nc1c(CN2CCSCC2)cnc2ccc(Cl)cc12 [Compound 428A, 5-chloro-2-[[6-chloro-3-(thiomorpholinomethyl)-4-quinolyl]amino]benzoic acid] | 22 | > 5 | > 5 | > 5 | < 0.001 | < 0.001 | – | maturation of TERC 3′ end processing | – | – | – | – | – | – | – | – | – | –
3 | O=C(O)c1cc(Cl)ccc1Nc1c(S(=O)(=O)N2CCSCC2)cnc2c(F)cc(Cl)cc12 [Compound 421A, 5-chloro-2-[(6-chloro-8-fluoro-3-thiomorpholinosulfonyl-4-quinolyl)amino]benzoic acid] | – | > 5 | > 5 | > 5 | < 0.001 | < 0.001 | – | maturation of TERC 3′ end processing | – | – | – | – | – | – | – | – | – | –
4 | O=C(O)c1cc(Cl)ccc1Nc1c(C2CCC(=NO)CC2)cnc2ccc(Cl)cc12 (stereo not drawn) [Compound 396A, 5-chloro-2-[[6-chloro-3-(4-hydroxyiminocyclohexyl)-4-quinolyl]amino]benzoic acid] | – | < 1 | > 5 | > 5 | < 0.001 | < 0.001 | maturation of TERC 3′ end processing | maturation of TERC 3′ end processing | – | – | – | – | – | – | – | – | – | –
5 | O=C(O)c1cc(Cl)ccc1Nc1c(C2=CCOCC2)cnc2ccc(Cl)cc12 [Compound 297A, 5-chloro-2-[[6-chloro-3-(3,6-dihydro-2H-pyran-4-yl)-4-quinolyl]amino]benzoic acid] | 42 | – | – | > 5 | – | – | – | – | no change in engraftment | maturation of TERC 3′ ends | – | – | – | – | – | – | – | –
6 | Cc1cc(Cl)cc2c(Nc3ccc(Cl)cc3C(=O)O)c(S(=O)(=O)N3CCSCC3)cnc12 [Compound 417A, 5-chloro-2-[(6-chloro-8-methyl-3-thiomorpholinosulfonyl-4-quinolyl)amino]benzoic acid] | 71 | – | – | – | – | – | – | maturation of TERC 3′ end processing | – | – | > 5 | > 5 | > 5 | < 0.001 | < 0.001 | – | – | –
7 | O=C(O)c1cc(Cl)ccc1Nc1c(N2CCC(F)(F)CC2)cnc2ccc(Cl)cc12 [Compound 340A, 5-chloro-2-[[6-chloro-3-(4,4-difluoro-1-piperidyl)-4-quinolyl]amino]benzoic acid] | 50 | > 5 | > 5 | – | < 0.001 | < 0.001 | maturation of TERC 3′ end processing | maturation of TERC 3′ end processing | – | – | – | – | – | – | – | > 5 | – | –
8 | O=C1CCC(c2cnc3ccc(Cl)cc3c2Nc2ccc(Cl)cc2C(=O)O)CC1 [Compound 404A, 5-chloro-2-[[6-chloro-3-(4-oxocyclohexyl)-4-quinolyl]amino]benzoic acid] | 35 | > 5 | > 5 | – | < 0.001 | < 0.001 | maturation of TERC 3′ end processing | – | – | – | – | – | – | – | – | > 5 | – | –
9 | O=C(O)c1cc(Cl)ccc1Nc1c(S(=O)(=O)N2CCC(F)(F)CC2)cnc2ccc(Cl)cc12 [Compound 345A, 5-chloro-2-[[6-chloro-3-[(4,4-difluoro-1-piperidyl)sulfonyl]-4-quinolyl]amino]benzoic acid] | 523 | > 5 | > 5 | > 5 | < 0.001 | 0.001 to 1 | – | – | – | – | – | – | – | – | – | – | – | –
10 | O=C(O)c1cc(Cl)ccc1Nc1c(C2=CCSCC2)cnc2ccc(Cl)cc12 [Compound 342A, 5-chloro-2-[[6-chloro-3-(3,6-dihydro-2H-thiopyran-4-yl)-4-quinolyl]amino]benzoic acid] | 821 | > 5 | > 5 | – | < 0.001 | < 0.001 | – | – | – | – | – | – | – | – | – | > 5 | – | –
11 | O=C(O)c1cc(Cl)ccc1Nc1c(S(=O)(=O)N2CCOCC2)cnc2ccc(Cl)cc12 [Compound 266A, 5-chloro-2-[(6-chloro-3-morpholinosulfonyl-4-quinolyl)amino]benzoic acid] | 102 | – | – | > 5 | – | – | – | – | – | – | – | – | – | – | – | – | 10 | 1-2 logs
12 | O=C(O)c1cc(Cl)ccc1Nc1c(N2CCC(Cl)CC2)cnc2ccc(Cl)cc12 [Compound 393A, 5-chloro-2-((6-chloro-3-(4-chloropiperidin-1-yl)quinolin-4-yl)amino)benzoic acid] | 282 | > 5 | > 5 | – | < 0.001 | < 0.001 | maturation of TERC 3′ end processing | – | – | – | – | – | – | – | – | > 5 | – | –
13 | O=C(O)c1cc(Cl)ccc1Nc1c(S(=O)(=O)N2CCSCC2)cnc2c(Cl)cc(Cl)cc12 [Compound 420A, 5-chloro-2-[(6,8-dichloro-3-thiomorpholinosulfonyl-4-quinolyl)amino]benzoic acid] | 100 | > 5 | > 5 | – | < 0.001 | < 0.001 | – | maturation of TERC 3′ end processing | – | – | – | – | – | – | – | > 5 | – | –
